Source: patent US8163909B2, “Substituted hydroxyethyl amine compounds as beta-secretase modulators and methods of use” (Amgen Inc., priority 2007, dated 2012)
Where two headings read alike, the source gives them in different places.

Key:
[1] = Microsomal stability assay, rat liver microsomes;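 also: rat liver microsomes (0.25 mg/mL) with about 1 µM compound plus 1 mM NADPH, pH 7.4, 37 °C for 30 min, parent left measured by LC-MS/MS against 0 min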
CYP3A4 (CYP3A) = CYP3A4 (CYP3A) (Homo sapiens, UniProt P08684); test: in vitro; conditions: microsomes, pH 7.4;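 also: inhibition of CYP3A-mediated 1-hydroxymidazolam formation after 10 min incubation with NADPH, quantified by HPLC MS relative to metabolite produced without test compound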
CYP3A4 (CYP3A), sequence (P08684 2-503): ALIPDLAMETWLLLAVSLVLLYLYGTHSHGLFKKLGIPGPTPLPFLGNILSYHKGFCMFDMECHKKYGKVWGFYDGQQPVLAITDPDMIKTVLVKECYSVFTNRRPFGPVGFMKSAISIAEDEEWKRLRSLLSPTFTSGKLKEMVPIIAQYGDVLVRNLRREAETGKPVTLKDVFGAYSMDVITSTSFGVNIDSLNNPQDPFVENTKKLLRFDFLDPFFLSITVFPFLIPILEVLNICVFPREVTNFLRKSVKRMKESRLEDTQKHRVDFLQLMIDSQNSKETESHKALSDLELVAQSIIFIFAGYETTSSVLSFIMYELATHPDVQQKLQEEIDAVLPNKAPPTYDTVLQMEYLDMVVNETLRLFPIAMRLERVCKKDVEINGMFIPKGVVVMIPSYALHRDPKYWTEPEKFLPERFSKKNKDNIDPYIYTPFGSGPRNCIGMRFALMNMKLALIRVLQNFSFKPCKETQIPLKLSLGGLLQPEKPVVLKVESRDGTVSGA

CYP2D6 = CYP2D6 (Homo sapiens, UniProt P10635); test: CYP2D6 inhibition assay (bufuralol, pooled human liver microsomes)
CYP2D6, sequence (P10635 whole entry): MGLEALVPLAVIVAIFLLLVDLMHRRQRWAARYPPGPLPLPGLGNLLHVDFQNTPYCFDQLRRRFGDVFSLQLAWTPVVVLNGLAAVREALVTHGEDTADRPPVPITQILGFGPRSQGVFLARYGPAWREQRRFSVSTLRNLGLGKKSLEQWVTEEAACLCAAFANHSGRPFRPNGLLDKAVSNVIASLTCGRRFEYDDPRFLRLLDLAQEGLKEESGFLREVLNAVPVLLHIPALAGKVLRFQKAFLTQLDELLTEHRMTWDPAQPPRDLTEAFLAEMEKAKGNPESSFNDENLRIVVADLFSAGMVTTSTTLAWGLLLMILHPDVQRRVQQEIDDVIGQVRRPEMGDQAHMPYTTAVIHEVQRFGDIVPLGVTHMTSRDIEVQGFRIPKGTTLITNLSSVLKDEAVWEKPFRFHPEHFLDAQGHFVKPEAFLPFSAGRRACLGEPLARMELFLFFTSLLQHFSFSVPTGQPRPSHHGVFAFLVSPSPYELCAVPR

[2] = test system: Aβ40 in conditioned medium of cells stably expressing Amyloid Precursor Protein (APP); test: In vitro BACE cell-based assay (Aβ40 in conditioned medium, sandwich ELISA); conditions: Homo sapiens, read-out: HEK cell assay;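 also: compounds added as a dilution series, secreted peptide quantified by europium time-resolved fluorescence readout, potency fitted from percent of control versus compound concentration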
[3] = molecular target: Beta Secretase enzyme (BACE) (Homo sapiens, UniProt P56817); test: In vitro enzymatic BACE FRET (fluorescence resonance energy transfer) assay; type: biochemical; conditions: read-out: BACE1 FRET assay;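 also: fluorescence read after 1 h with 50 nM quenched peptide substrate spanning the BACE cleavage site, in pH 4.2 acetate buffer containing 10% DMSO and nonionic detergent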
Beta Secretase enzyme (BACE), sequence (P56817 46-501): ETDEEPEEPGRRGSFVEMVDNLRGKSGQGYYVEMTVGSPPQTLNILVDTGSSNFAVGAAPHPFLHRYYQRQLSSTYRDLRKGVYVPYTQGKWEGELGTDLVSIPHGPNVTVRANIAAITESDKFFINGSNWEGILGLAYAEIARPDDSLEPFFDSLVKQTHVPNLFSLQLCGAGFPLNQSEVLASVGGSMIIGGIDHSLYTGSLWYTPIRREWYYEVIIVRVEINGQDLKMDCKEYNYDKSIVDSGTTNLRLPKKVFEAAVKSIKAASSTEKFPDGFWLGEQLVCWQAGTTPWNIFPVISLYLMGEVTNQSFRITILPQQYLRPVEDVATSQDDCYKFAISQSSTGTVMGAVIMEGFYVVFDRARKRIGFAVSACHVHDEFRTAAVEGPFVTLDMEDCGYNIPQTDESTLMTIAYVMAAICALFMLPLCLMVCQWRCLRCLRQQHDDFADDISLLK

[4] = Microsomal stability assay, human liver microsomes;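 also: pooled human liver microsomes at 0.25 mg/mL with 1 µM compound and NADPH at 37 °C, pH 7.4, for 30 min, unchanged parent quantified by LC-MS/MS against the 0 min sample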
[5] = 2D6 IC50 (uM), CYP enzyme inhibition
[6] = HEK293, HEK cell-based assay, IC50's in uM
[7] = BACE enzyme assay, IC50's in uM
[8] = 2D6 IC50 (uM), CYP2D6 inhibition
[9] = HEK293, HEK cell-based assay IC50
[10] = 2D6 IC50, CYP enzyme inhibition

SMILES	RLM ([1]; rat liver microsomal data)	IC50 (CYP3A4 (CYP3A))	IC50 (CYP2D6; [5])	IC50 [2, 6]	IC50 [3, 7]	HLM ([4]; human liver microsomal data)	IC50 ([2]; HEK293, HEK cells)	IC50 ([3]; BACE enzyme assay)	RLM ([1]; rat liver microsomes)	IC50 (CYP2D6; [8])	IC50 [2, 9]	IC50 ([3]; BACE enzyme assay IC50)	HLM ([4]; human liver microsomes)	IC50 (CYP2D6; [10])	IC50 ([2]; HEK293, Table 2, HEK cells)	IC50 ([3]; Table 2)
COCC(=O)N[C@@H](Cc1ccc2c(c1)OCO2)[C@H](O)CN[C@H]1CC2(CCC2)Oc2c(-c3ccccn3)cc(CC(C)C)cc21 [compound 767]	150 µL/min/mg	100 nM	3.6 µM	0.251 µM	0.198 µM	157 µL/min/mg	–	–	–	–	–	–	–	–	–	–
CO[C@H](C)C(=O)N[C@@H](Cc1ccccc1)[C@H](O)CN[C@H]1CC2(CCC2)Oc2c1cc(CC(C)C)cc2-n1ccnc1 [compound 547]	260 µL/min/mg	100 nM	4.4 µM	–	–	53 µL/min/mg	0.073 µM	0.042 µM	–	–	–	–	–	–	–	–
C#Cc1cc2c(c(-n3ccnc3)c1)OC1(CCC1)C[C@@H]2NC[C@@H](O)[C@H](Cc1cc(F)cc(F)c1)NC(=O)COC [compound 689]	–	≤ 30 nM	–	–	–	–	–	–	44.5 µL/min/mg	0.2 µM	0.027 µM	0.038 µM	18.5 µL/min/mg	–	–	–
COCC(=O)N[C@@H](Cc1cc(F)cc(F)c1)[C@H](O)CN[C@H]1CC2(CCC2)Oc2c1cc(CC(C)C)cc2-n1ccnc1 [compound 458]	188.5 µL/min/mg	100 nM	–	–	–	25.5 µL/min/mg	–	–	–	–	–	–	–	0.9 µM	0.012 µM	0.017 µM
CO[C@H](C)C(=O)N[C@@H](Cc1cc(F)cc(F)c1)[C@H](O)CN[C@H]1CC2(CCC2)Oc2c(-c3nccs3)cc(CC(C)C)cc21 [compound 459]	399 µL/min/mg	400 nM	–	–	–	399 µL/min/mg	–	–	–	–	–	–	–	10.2 µM	0.046 µM	0.004 µM
CO[C@H](C)C(=O)N[C@@H](Cc1cc(F)cc(F)c1)[C@H](O)CN[C@H]1CC2(CCC2)Oc2ncc(CC(C)(C)C#N)cc21 [compound 511]	203 µL/min/mg	2400 nM	14.5 µM	–	–	382 µL/min/mg	0.011 µM	0.007 µM	–	–	–	–	–	–	–	–
CO[C@H](C)C(=O)N[C@@H](Cc1ccc2c(c1)OCO2)[C@H](O)CN[C@H]1CC2(CCC2)Oc2ncc(CC(C)(C)F)cc21 [compound 741]	–	≤ 30 nM	–	–	–	–	–	–	76 µL/min/mg	5 µM	0.329 µM	0.352 µM	25 µL/min/mg	–	–	–
CNc1nc(CC(C)(C)C)cc2c1OC1(CCC1)C[C@@H]2NC[C@@H](O)[C@H](Cc1ccc(F)c(-c2nccs2)c1)NC(=O)COC [compound 716, N-((1S,2R)-3-(((4′S)-6′-(2,2-dimethylpropyl)-8′-(methylamino)-3′,4′-dihydrospiro[cyclobutane-1,2′-pyrano[2,3-c]pyridin]-4′-yl)amino)-1-(4-fluoro-3-(1,3-thiazol-2-yl)benzyl)-2-hydroxypropyl)-2-methoxyacetamide]	–	400 nM	–	–	–	–	–	–	190 µL/min/mg	1.5 µM	0.025 µM	0.032 µM	123 µL/min/mg	–	–	–
CO[C@H](C)C(=O)N[C@@H](Cc1ccc2c(c1)OCO2)[C@H](O)CN[C@H]1CC2(CCC2)Oc2c1cc(CC(C)(C)C)nc2N(C)C [compound 444]	662 µL/min/mg	7500 nM	–	–	–	399 µL/min/mg	–	–	–	–	–	–	–	9.4 µM	0.777 µM	0.298 µM
COCC(=O)N[C@@H](Cc1cc(F)cc(F)c1)[C@H](O)CN[C@H]1CC2(CCC2)Oc2c(-c3cncs3)cc(CC(C)(C)C)cc21 [compound 486]	380 µL/min/mg	200 nM	–	–	–	408 µL/min/mg	–	–	–	–	–	–	–	12.8 µM	0.033 µM	0.004 µM
CC#Cc1cnc2c(c1)[C@@H](NC[C@@H](O)[C@H](Cc1cccc(-c3nccs3)c1)NC(=O)COC)CC1(CCC1)O2 [compound 811]	54 µL/min/mg	300 nM	1 µM	0.736 µM	0.309 µM	36 µL/min/mg	–	–	–	–	–	–	–	–	–	–
CNc1cc(CC(C)(C)C)cc2c1OC1(CCC1)C[C@@H]2NC[C@@H](O)[C@H](Cc1cc(F)cc(F)c1)NC(=O)COC [compound 479]	329 µL/min/mg	1800 nM	–	–	–	167 µL/min/mg	–	–	–	–	–	–	–	6.4 µM	0.017 µM	0.011 µM
